A short description of data set [1]: log P by LC-MS, method [b], acid range pH 2.7. The class given is physicochemical. As to conditions: pH 2.7. The procedure: The log P values were measured in accordance with EEC Directive 79/831 Annex V.A8 by HPLC (High Performance Liquid Chromatography) on reversed-phase columns (C 18) using the methods below:
[b] The LC-MS determination in the acid range was carried out at pH 2.7 using the mobile phases 0.1% aqueous formic acid and acetonitrile (contains 0.1% formic acid)
linear gradient from 10% acetonitrile to 95% acetonitrile.

A short description of the next data set: physchem. The class given is physicochemical. Conditions: pH 7.8. The protocol: The log P values were measured in accordance with EEC Directive 79/831 Annex V.A8 by HPLC (High Performance Liquid Chromatography) on reversed-phase columns (C 18) using the methods below: [c] The LC-MS determination in the neutral range was carried out at pH 7.8 using the mobile phases 0.001 molar aqueous ammonium bicarbonate solution and acetonitrile linear gradient from 10% acetonitrile to 95% acetonitrile.

For the compound `CC1CC1Nc1nc(Nc2cccc(N3CCOC3=O)c2)ncc1Br` (stereo not shown) [Example 227], the log p in data set [1] is 1.77[b]; in “physchem”, 2.79[c];.

In the case of `CC1(Nc2nc(Nc3cccc(N4CCCC4=O)c3)ncc2C(F)(F)F)CC1` [Example 252], the log p in data set [1] is 2.44[b]; in the data set “physchem”, 2.95[c];.

Take `CC(C)Nc1nc(Nc2cccc(N3CCCC3=O)c2)ncc1C(F)(F)F` [Example 297]: the log p in data set [1] is 2.35[b]; in the data set “physchem”, 3[c];.

Take `CCC1CCC(=O)N1c1cccc(Nc2ncc(Cl)c(NC3CC3)n2)c1` (stereo not shown) [Example 294]: the log p in data set [1] was 1.87[b]; in “physchem”, 2.74[c];.

`O=C1CCCN1c1cccc(Nc2ncc(C(F)(F)F)c(N3CCCC3)n2)c1` [Example 301]: the log p in data set [1] was 2.45[b]; in “physchem”, 3.24[c];.

As to `CC1CC1Nc1nc(Nc2cccc(N3CCCCC3=O)c2)ncc1Cl` (stereo not shown) [Example 213], the log p in data set [1] is 1.7[b]; in the data set “physchem”, 2.48[c];.

As to `CC1CC(Nc2nc(Nc3cccc(N4CCCC4=O)c3)ncc2Cl)C1` (stereo not shown) [Example 299], the log p was 3.25[b] in data set [1] and 3.26[c]; in “physchem”.

`CC1CC(Nc2nc(Nc3cccc(N4C(=O)CC(C)(C)C4=O)c3)ncc2Br)C1` (stereo not shown) [Example 257]: the log p was 2.58[b] in data set [1] and 3.66[c]; in “physchem”.

For the compound `CC1CC(=O)N(c2cccc(Nc3ncc(Cl)c(NC4CCC4)n3)c2)C1=O` (stereo not shown) [Example 188], the log p in data set [1] was 1.76[b]; in “physchem”, 2.67[c];.

Turning to `CCC1CC(C)C(=O)N1c1cccc(Nc2ncc(Br)c(NC3CC3)n2)c1` (stereo not shown) [Example 208], the log p in data set [1] is 2.32[b]; in “physchem”, 3.31[c];.

As for `CC1CC(=O)N(c2cccc(Nc3ncc(C(F)(F)F)c(NC4CC4)n3)c2)C1=O` (stereo not shown) [Example 244], the log p is 2.29[b] in data set [1] and 2.53[c]; in “physchem”.

As for `CC1CC(Nc2nc(Nc3cccc(N4C(=O)CC(C)C4=O)c3)ncc2Cl)C1` (stereo not shown) [Example 333], the log p in data set [1] was 2.09[b]; in “physchem”, 3.09[c];.

Regarding `COC(=O)N(c1cccc(N2CCCC2=O)c1)c1ncc(Cl)c(NC2CC2)n1` [Example 327], the log p in data set [1] is 1.77[b]; in “physchem”, 1.99[c];.

As for `CCC1CC(C)C(=O)N1c1cccc(Nc2ncc(Br)c(NC(C)C)n2)c1` (stereo not shown) [Example 210], the results for the log p (in data set [1]; in “physchem”) were 2.36[b] and 3.7[c];, respectively.

As to `O=C1CCCN1c1cccc(Nc2ncc(Cl)c(N3CCOCC3)n2)c1` [Example 226], the values for the log p (in data set [1]; in “physchem”) were 1.98[b] and 2.29[c];, respectively.

Turning to `Cc1cc(Nc2ncc(C(F)(F)F)c(NC3CC3)n2)cc(N2CCCC2=O)c1` [Example 310], the log p in data set [1] is 2.51[b]; in “physchem” it was 2.98[c];.

On to `CC1CC1Nc1nc(Nc2cccc(N3CCCCC3=O)c2)ncc1Br` (stereo not shown) [Example 223], for which the log p in data set [1] was 1.81[b]; in “physchem” it was 2.67[c];.

For `CC1CC(Nc2nc(Nc3cccc(N4C(=O)CC(C)(C)C4=O)c3)ncc2Cl)C1` (stereo not shown) [Example 259], the figures for the log p (in data set [1]; in “physchem”) were 2.43[b] and 3.22[c];, respectively.

`O=C1CCC(C(F)(F)F)N1c1cccc(Nc2ncc(Br)c(NC3CCC3)n2)c1` (stereo not shown) [Example 258]: the log p in data set [1] is 2.3[b]; in the data set “physchem”, 3.24[c];.

Consider `COc1ccc(Nc2ncc(C(F)(F)F)c(NC3CC3)n2)cc1N1CCCC1=O` [Example 324], for which the log p in data set [1] was 1.98[b]; in the data set “physchem” it was 2.51[c];.

Regarding `Cc1ccc(Nc2ncc(Cl)c(NC3CC3)n2)cc1N1CCCC1=O` [Example 305], the figures for the log p (in data set [1]; in the data set “physchem”) were 1.44[b] and 2.32[c];, respectively.

On to `O=C1CCCN1c1cccc(Nc2ncc(C(F)(F)F)c(NCC(F)F)n2)c1` [Example 311], for which the log p is 2.38[b] in data set [1] and 2.52[c]; in the data set “physchem”.

With `CC1CC1Nc1nc(Nc2cccc(N3C(=O)OCC3C)c2)ncc1Cl` (stereo not shown) [Example 215], the log p was 1.84[b] in data set [1] and 2.79[c]; in “physchem”.
